{
  "source": "paper PMC11148078",
  "about": "“Potent activity of polymyxin B is associated with long-lived super-stoichiometric accumulation mediated by weak-affinity binding to lipid A” (Nature Communications, 2024)",
  "key": {"[1]": {"system": "mammalian extracellular vesicles (Expi293 cells)", "test": "SPR binding to mammalian vesicles on LP chip", "conditions": "312.5 nM–40 µM, 25 °C", "excerpt": "tween-80 (SI Fig. S4F). Note that higher concentrations were used to resolve the interaction above non-specific chip binding and the loss of polymyxin B to binding of plastics as discussed […]\nOMVs isolated from polymyxin-resistant bacteria (resistant-OMVs) were composed of modified lipid A (SI Table S1 and SI Fig. S6) and were immobilized via amine-coupled polymyxin B to the surface of a C1 chip (SI Fig. S4G). Given the results of our studies here, the binding of resistant-OMVs to the amine-coupled polymyxin B surface (stably, at least within the time frames used here) is not surprising. OMVs have several advantages over whole cells and purified LPS. They can be produced in large batches and frozen for multiple experiments. OMVs can be isolated from potentially any genetic background (such as the two polymyxin-resistant strains used here), from potentially any gram-negative bacterial strains, and allow interrogation of types of LPS which are not commercially available (ex. modified lipid A species). […]\nAnalysis and compartment temperature were set to 25°C. Mammalian vesicles from Expi293 cells were isolated as described19 by harvesting supernatants and concentrating vesicles via ultra-centrifugation (120,000 xg, 4°C, 1h), washing, suspending pellet in PBS, quantifying by Bradford protein assay, and diluting to […] in PBS. […]"}, "[2]": {"system": "resistant-OMVs", "test": "Three-state model fit to SPR titration, resistant-OMVs", "type": "binding, E. coli", "conditions": "resistant-OMV", "excerpt": "To estimate binding constants, the three-state model was fit to binding curve titrations (Fig. 5A, B, and Table 2). Briefly, the SPR response curves of polymyxin B binding wt-OMVs (Fig. 5A) or resistant OMVs (Fig. 5B) were globally fit to Eqn. (1) by non-linear regression coupled to numerical integration of the associated ordinary differential equations (see Supplementary Information Section 2A), which define the time-dependent concentrations of each species.1 Response(t)=([PMBL]t+[nPMBL]t+2*[tPMB]t+m.[cPMB]t).MW.G.\nSection 2A - Formulation of three-state model for fitting SPR data\nThe three-state model (Fig. 4) was formulated as a set of coupled ordinary differential equations (ODEs), with eight binding rate constants (k1-8) governing the rates of interchange of each species.\nForward rate constants k7 and k9 were eliminated from the equation set as formation of transient species tPMB and LL are irreversible.\nTime at Injection 1 start = 0 s\nSample contact time = 30 s\nDissociation time interval = 35 s\nMass transport rate = kt = 46.5 1/s\nInitial Species Concentrations\nCoupled ODEs of Three-State Model d[L]/dt = -(k1.[PMB].[L] - k2.[PMBL])+2*k10.[LL] (S8) d[PMB]/dt = -(k1.[PMB].[L] - k2.[PMBL]) + kt’.([PMBi](t) –[PMB]) (S9) d[PMBL]/dt = (k1.[PMB]*[L] - k2.[PMBL])-(k3.[PMBL].[n] - k4.[nPMBL] ) (S10) d[n]/dt = -(k3.[PMBL].[n] - k4.[nPMBL] ) (S11) d[nPMBL]/dt = (k3.[PMBL].[n] - k4.[nPMBL])-2.(k5.[nPMBL].[nPMBL] - k6.[tPMB].[LL] ) (S12) d[tPMB]/dt = (k5.[nPMBL].[nPMBL] - k6.[tPMB].[LL] ) – k8.[tPMB] (S13) d[cPMB]/dt = 2*k8.[tPMB] (S14) d[LL]/dt = (k5.[nPMBL].[nPMBL] – k6.[tPMB].[LL]) – k10.[LL] (S15)\nThe initial concentrations of each species were as follows\n[PMB]t=0 = [PMBL]t=0 = [nPMBL]t=0 = [tPMB]t=0 = [LL]t=0 = [cPMB]t=0 = 0 [L]t=0 = [n]t=0 = 1.56 x 10-4 (units, M) kt’ (units, m/s) was already defined in SI Section 1A. [PMBi](t) is the injected concentration profile and [PMB]t is the concentration profile at the sensing surface. [PMBi](t) follows a serial-doubling concentration of injected analyte, with a concentration profile defined by a serial step function, where each injection step represents a discrete concentration followed by a dissociation step without injected analyte and this is repeated for each concentration in the SCK dosing series.\nKintek Explorer V9.5 was used to build and fit the three-state model. This program employs its own numerical integrator9, which reports the change in concentration of each species over time.\nThe SPR responses for concentrations of each accumulating PMB-species estimated from Eqn (8 - 15) are summed over time in Eqn (1), repeated here.\nResponse(t) = ([PMBL]t+[nPMBL]t+2*[tPMB]t+m.[cPMB]t).MW.G. Eqn (1)\nThe concentration of [tPMB]t is multiplied by two to account for its additional mass, being composed of two PMB molecules. […]"}},
  "note": "Bridge positions count the residues as written; N and C are the ends. Square brackets hold non-standard residues; d marks the D form. Peptide text beside a SMILES is read from it. * marks the point of attachment. X1 = CC[C@H](C)CCCCC(=O)*; Dab = NCC[C@H](N)C(=O)O",
  "data": [
    {"smiles": "CC[C@H](C)CCCCC(=O)N[C@@H](CCN)C(=O)N[C@H](C(=O)N[C@@H](CCN)C(=O)N[C@H]1CCNC(=O)[C@H]([C@@H](C)O)NC(=O)[C@H](CCN)NC(=O)[C@H](CCN)NC(=O)[C@H](CC(C)C)NC(=O)[C@@H](Cc2ccccc2)NC(=O)[C@H](CCN)NC1=O)[C@@H](C)O", "note": "[Polymyxin B] (X1-[Dab]T[Dab][Dab][Dab][dF]L[Dab][Dab]T; lactam 4-C (inferred); N-terminus assumed)", "values": [
      {"measurement": "SPR binding to mammalian cell derived vesicles", "setting": "[1]", "value": "distinct from what we observe with OMVs and bacterial cells"},
      {"measurement": "k3", "setting": "[2]; first two states, max 625 nM", "value": 335, "unit": "M⁻¹ s⁻¹"},
      {"measurement": "k4", "setting": "[2]; first two states, max 625 nM", "value": 0.0085, "unit": "s⁻¹"},
      {"measurement": "Kd", "setting": "[2]; fitted, first two states, max 625 nM, read-out: KD = k2/k1", "value": 268, "unit": "nM"},
      {"measurement": "kt", "setting": "[2]; mass transport rate", "value": 44.6, "unit": "ms^−1"}
    ]}
  ]
}
